In patent EP0590919A1, “Therapeutic agents for parkinson's disease” (KYOWA HAKKO KOGYO CO., LTD., priority 1992, dated 1994):

Experiments:
dd-strain male mice = test: Acute toxicity test (minimum lethal dose, oral); format: in vivo; details: oral administration, three mice per group, mortality seven days after administration
Procedure: Test compounds were orally administered to groups of dd-strain male mice weighing 20 ± 1 g, each group consisting of three mice. Seven days after the administration, minimum lethal dose (MLD) of each compound was determined by observing the mortality.

A₂ receptor = molecular target: T1, A₂ receptor (Rattus norvegicus, UniProt P30543); test: Adenosine A₂ receptor binding test (³H-CGS 21680 binding); details: [^3H]CGS 21680 was used, rat corpus striatum, read-out: A2 Receptor Inhibition (%); for inhibition at 1 µM: 10^-6M; for inhibition at 0.1 µM: 10^-7M
T1 construct: from tissue; host or cells: rat corpus striatum membrane preparation
Procedure: The similar procedure as in the above-described adenosine A₁ receptor binding test was repeated using rat corpus striatum to obtain the final precipitate of the tissue thereof. The precipitate was suspended in 50 mM Tris HCl buffer containing 10 mM magnesium chloride and 0.02 unit/mg tissue of adenosine deaminase (manufactured by Sigma Co.) to give a tissue concentration of 5 mg (wet weight)/ml.
The similar procedure as above was repeated to determine the radioactivity bound to the A₂ receptors using 50 µl of CGS 21680 labeled with tritium [³H-2-[p-(2-carboxyethyl)-phenethylamino]-5'-(N-ethylcarboxamide)adenosine: 40 Ci/mmol, manufactured by New England Nuclear Co. (J. Pharmacol. Exp. Ther., 251, 888 (1989)] (final concentration: 4.0 nM) in place of 50 µl of the mixture of N-ethylcarboxamidoadenosine labeled with tritium (³H-NECA: 26 Ci/mmol, manufactured by Amersham Co.) (final concentration: 3.8 nM) and cyclopentyladenosine (CPA, manufactured by Sigma Co.) (final concentration: 50 nM).
The inhibition rate of the test compound against the binding of A₂ receptors (³H-CGS 21680 binding) was calculated by the following equation: [formula] [Notes] • 1. "B" means the amount of radioactivity of ³H-CGS 21680 bound in the presence of a test compound at a concentration shown in Table 4. • 2. "T" means the amount of radioactivity of ³H-CGS 21680 bound in the absence of a test compound. • 3. "N" means the amount of radioactivity of ³H-CGS 21680 bound in the presence of 100 µM CPA.

T1 sequence (P30543 whole entry): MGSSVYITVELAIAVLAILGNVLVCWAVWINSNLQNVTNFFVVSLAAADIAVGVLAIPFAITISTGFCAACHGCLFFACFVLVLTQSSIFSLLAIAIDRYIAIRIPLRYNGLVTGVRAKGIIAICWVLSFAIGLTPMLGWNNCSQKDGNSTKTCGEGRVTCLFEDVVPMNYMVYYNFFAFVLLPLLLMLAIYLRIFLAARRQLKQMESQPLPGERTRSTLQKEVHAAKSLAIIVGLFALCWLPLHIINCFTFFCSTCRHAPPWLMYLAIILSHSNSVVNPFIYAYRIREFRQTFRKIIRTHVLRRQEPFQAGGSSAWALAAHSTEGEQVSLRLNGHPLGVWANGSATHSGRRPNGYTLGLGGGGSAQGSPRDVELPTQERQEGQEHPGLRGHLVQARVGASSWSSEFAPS

| Structure (SMILES) | MLD (dd-strain male mice) [mg/kg] | inhibition at 1 µM (A₂ receptor) [%] | inhibition at 0.1 µM (A₂ receptor) [%] |
| --- | --- | --- | --- |
| CCn1c(=O)c2[nH]c(/C=C/c3cccc(Br)c3)nc2n(CC)c1=O [Compound 91, (E)-8-(3-Bromostyryl)-1,3-diethylxanthine] | > 100 | 51 | 9 |
| CCn1c(=O)c2[nH]c(/C=C/c3ccc(OC)c(F)c3)nc2n(CC)c1=O [Compound 102, (E)-1,3-Diethyl-8-(3-fluoro-4-methoxystyryl)xanthine] | > 100 | 94 | 70 |
| CCn1c(=O)c2c(nc(/C=C/c3ccc(OCCCCN=[N+]=[N-])cc3)n2C)n(CC)c1=O [Compound 115, (E)-8-[4-(4-Azidobutoxy)styryl]-1,3-diethyl-7-methylxanthine] | > 100 | 79 | 34 |
| CCn1c(=O)c2c(nc(/C=C/c3ccc(OC)c(C)c3)n2C)n(CC)c1=O [Compound 48, (E)-1,3-Diethyl-8-(4-methoxy-3-methylstyryl)-7-methylxanthine] | > 100 | 99 | 83 |
| CCn1c(=O)c2[nH]c(/C=C/c3cccc(C(F)(F)F)c3)nc2n(CC)c1=O [Compound 93, (E)-1,3-Diethyl-8-(3-trifluoromethylstyryl)xanthine] | > 100 | 85 | 53 |
| CCn1c(=O)c2[nH]c(/C=C/c3cccc([N+](=O)[O-])c3)nc2n(CC)c1=O [Compound 89, (E)-1,3-Diethyl-8-(3-nitrostyryl)xanthine] | > 100 | 78 | 59 |
| CCn1c(=O)c2[nH]c(/C=C/c3cccc(OC)c3)nc2n(CC)c1=O [Compound 39, (E)-1,3-Diethyl-8-(3-methoxystyryl)xanthine] | > 100 | 88 | 80 |
| CCn1c(=O)c2c(nc(/C=C/c3ccc(OCCCCBr)cc3)n2C)n(CC)c1=O [Compound 114, (E)-8-[4-(4-Bromobutoxy)styryl]-1,3-diethyl-7-methylxanthine] | > 100 | 87 | 23 |
| CCn1c(=O)c2c(nc(/C=C/c3cccc(OC(F)(F)F)c3)n2C)n(CC)c1=O [Compound 80, (E)-1,3-Diethyl-7-methyl-8-(3-trifluoromethoxystyryl)xanthine] | > 100 | 86 | 72 |
| CCn1c(=O)c2c(nc(/C=C/c3cccc(C(F)(F)F)c3)n2C)n(CC)c1=O [Compound 94, (E)-1,3-Diethyl-7-methyl-8-(3-trifluoromethylstyryl)xanthine] | > 100 | 98 | 71 |
| CCn1c(=O)c2[nH]c(/C=C/c3cc(OC)c4c(c3)OCO4)nc2n(CC)c1=O [Compound 106, (E)-1,3-Diethyl-8-(3-methoxy-4,5-methylenedioxystyryl)xanthine] | > 100 | 94 | 83 |
| CCn1c(=O)c2[nH]c(/C=C/c3ccc(OCOC)cc3)nc2n(CC)c1=O [Compound 81, (E)-1,3-Diethyl-8-(4-methoxymethoxystyryl)xanthine] | > 100 | 95 | 78 |
| CCCCOc1ccc(/C=C/c2nc3c([nH]2)c(=O)n(CC)c(=O)n3CC)cc1 [Compound 41, (E)-8-(4-Butoxystyryl)-1,3-diethylxanthine] | > 100 | 52 | 27 |
| CCn1c(=O)c2[nH]c(/C=C/c3ccc(C)cc3)nc2n(CC)c1=O [Compound 43, (E)-1,3-Diethyl-8-(4-methylstyryl)xanthine] | > 100 | 70 | 68 |
| CCn1c(=O)c2[nH]c(/C=C/c3ccc(OC)c(C)c3)nc2n(CC)c1=O [Compound 47, (E)-1,3-Diethyl-8-(4-methoxy-3-methylstyryl)xanthine] | > 100 | 92 | 67 |
| CCn1c(=O)c2[nH]c(/C=C/c3cc4c(cc3Br)OCO4)nc2n(CC)c1=O [Compound 95, (E)-8-(2-Bromo-4,5-methylenedioxystyryl)-1,3-diethylxanthine] | > 100 | 89 | 75 |
| CCn1c(=O)c2c(nc(/C=C/c3ccc(C(F)(F)F)cc3)n2C)n(CC)c1=O [Compound 74, (E)-1,3-Diethyl-7-methyl-8-(4-trifluoromethylstyryl)xanthine] | > 300 | 87 | 59 |
| CCn1c(=O)c2c(nc(/C=C/c3cc4c(cc3Br)OCO4)n2C)n(CC)c1=O [Compound 96, (E)-8-(2-Bromo-4,5-methylenedioxystyryl)-1,3-diethyl-7-methylxanthine] | > 100 | 101 | 84 |
| CCn1c(=O)c2[nH]c(/C=C/c3ccccc3F)nc2n(CC)c1=O [Compound 97, (E)-1,3-Diethyl-8-(2-fluorostyryl)xanthine] | > 100 | 87 | 66 |
| CCn1c(=O)c2[nH]c(/C=C/c3cccc(OC(F)(F)F)c3)nc2n(CC)c1=O [Compound 79, (E)-1,3-Diethyl-8-(3-trifluoromethoxystyryl)xanthine] | > 100 | 79 | 53 |
| CCn1c(=O)c2c(nc(/C=C/c3cccc(Oc4ccccc4)c3)n2C)n(CC)c1=O [Compound 120, (E)-1,3-Diethyl-7-methyl-8-(3-phenoxystyryl)xanthine] | > 100 | 75 | 89 |
| CCn1c(=O)c2[nH]c(/C=C/c3cccc(F)c3C)nc2n(CC)c1=O [Compound 108, (E)-1,3-Diethyl-8-(3-fluoro-2-methylstyryl)xanthine] | > 100 | 94 | 87 |
| CCn1c(=O)c2[nH]c(/C=C/c3cc(F)cc(F)c3)nc2n(CC)c1=O [Compound 87, (E)-8-(3,5-Difluorostyryl)-1,3-diethylxanthine] | > 100 | 66 | 59 |
| CCn1c(=O)c2c(nc(/C=C/c3ccccc3F)n2C)n(CC)c1=O [Compound 98, (E)-1,3-Diethyl-8-(2-fluorostyryl)-7-methylxanthine] | > 100 | 95 | 92 |
| CCn1c(=O)c2c(nc(/C=C/c3ccc(F)c(Cl)c3)n2C)n(CC)c1=O [Compound 105, (E)-8-(3-Chloro-4-fluorostyryl)-1,3-diethyl-7-methylxanthine] | > 100 | 96 | 76 |
| CCn1c(=O)c2c(nc(/C=C/c3ccc(-c4ccccc4)cc3)n2C)n(CC)c1=O [Compound 101, (E)-1,3-Diethyl-7-methyl-8-(4-phenylstyryl)xanthine] | > 100 | 76 | 36 |
| CCCCOc1ccc(/C=C/c2nc3c(c(=O)n(CC)c(=O)n3CC)n2C)cc1 [Compound 42, (E)-8-(4-Butoxystyryl)-1,3-diethyl-7-methylxanthine] | > 100 | 87 | 46 |
| CCn1c(=O)c2[nH]c(/C=C/c3ccc(F)cc3)nc2n(CC)c1=O [Compound 83, (E)-1,3-Diethyl-8-(4-fluorostyryl)xanthine] | > 100 | 70 | 75 |
| CCn1c(=O)c2[nH]c(/C=C/c3ccc(Br)cc3)nc2n(CC)c1=O [Compound 77, (E)-8-(4-Bromostyryl)-1,3-diethylxanthine] | > 100 | 54 | 54 |
